Measured values: ChEMBL document CHEMBL1201862, “PubChem BioAssay data set” (2004)
Calls of active or inactive are those of the source.

Columns and labels:
HEK293 [1] = assay: HEK293T cell viability loss, resazurin readout – resazurin fluorescence, cytotoxicity control for NF-kB activator project, SAR follow-up (AID 493251); format: functional, cell-based; settings: Homo sapiens
Jurkat [2] = assay: SAR Analysis of small molecule inhibitors of T-cell specific antigen receptor-induced NF-kB activation in a Jurkat cell line using a luminescence assay - Set 2. [Related pubchem assays (depositor defined):AID435003, AID435012, AID465]; format: functional, cell-based; settings: Homo sapiens
HEK293 [3] = assay: SAR Analysis of small molecule inhibitors of T-cell specific antigen receptor-induced NF-kB activation in a HEK-293T cell line using a luminescence assay - Set 2. [Related pubchem assays (depositor defined):AID435003, AID435012, AID489026]; format: functional, cell-based; settings: Homo sapiens
[4] = NIH3T3 cell viability loss – ATP luminescence, mouse fibroblasts, counter-screen, dose response (AID 2010); format: functional, cell-based;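 further: cells exposed to compound for about 90 hours before reading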
[5] = reduced cellular PGC1a acetyl-lysine signal – cell-based, cherry-picked samples, dose response (AID 720514); format: functional;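 further: potency may reflect raised or lowered acetylation signal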
[6] = Trypanosoma cruzi growth suppression in host cells – NIH3T3 host cells, beta-gal luminescence, confirmation (AID 2044); format: functional, cell-based;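 further: intracellular parasites grown in NIH/3T3 mouse fibroblasts as host cells; luminescent beta-galactosidase reporter signal from transgenic T. cruzi replicating inside host cells; inhibitors lower the luminescence signal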
[7] = A Cell Based Secondary Assay To Explore Cytotoxicity of Compounds that Sensitize Mycobacterium Tuberculosis to Beta-Lactam Antibiotics.; format: functional
[8] = biological target: T1, Heat shock factor protein 1 (Mus musculus, UniProt P38532); assay: enhancement of HSF1-driven luciferase signal – cell-based, NIH3T3, luminescence, dose retest, confirmation (AID 435004); format: functional;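 further: stress induced by proteasome inhibitor MG132 added 30 min after compound; luciferase reporter driven by HSF1 response element in NIH3T3 cells; actives raise luminescence as potentiators of the MG132 stress response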
T1 sequence (P38532 whole entry): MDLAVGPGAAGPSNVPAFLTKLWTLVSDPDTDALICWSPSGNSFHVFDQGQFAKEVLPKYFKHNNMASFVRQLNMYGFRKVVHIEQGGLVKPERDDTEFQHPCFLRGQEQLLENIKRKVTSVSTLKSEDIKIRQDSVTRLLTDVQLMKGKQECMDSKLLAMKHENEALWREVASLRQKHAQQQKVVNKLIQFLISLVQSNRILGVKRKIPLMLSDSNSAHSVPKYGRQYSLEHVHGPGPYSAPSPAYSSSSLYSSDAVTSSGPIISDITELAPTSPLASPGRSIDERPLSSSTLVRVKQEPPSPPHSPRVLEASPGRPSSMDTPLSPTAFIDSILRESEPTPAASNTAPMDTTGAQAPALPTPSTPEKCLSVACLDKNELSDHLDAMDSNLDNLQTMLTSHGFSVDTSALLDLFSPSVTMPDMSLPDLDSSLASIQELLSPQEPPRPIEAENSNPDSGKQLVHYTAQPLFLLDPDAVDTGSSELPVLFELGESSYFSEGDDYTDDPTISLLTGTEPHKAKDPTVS

HEK293 [9] = assay: cells; settings: Homo sapiens
HEK293 [10] = assay: cells; settings: Homo sapiens; remark: listed apart in the source
Jurkat [11] = assay: blockers of NF-kB activation in T cells – Jurkat, luciferase reporter, luminescence, B- and T-cell, dose response (AID 489004); format: functional, cell-based; settings: Homo sapiens;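 further: NF-kB luciferase reporter Jurkat cells stimulated with PMA plus ionomycin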
INS1 = assay: INS-1E survival protection against cytokine death – cell-based, luminescence, retest, dose response (AID 449756); format: functional; settings: Rattus norvegicus;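 further: cell death triggered by IL-1 beta plus TNF-alpha plus IFN-gamma mixture; protective hits raise ATP signal compared with cytokine alone wells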
[12] = HEK-293T viability loss, compound-treated – cell-based, uHTS hits, cytotoxicity control for B/T-cell NF-kB inhibitor project, dose response (AID 489019); format: functional;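 further: IC50 reflects cytotoxicity as loss of cell viability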
A-375 = assay: proliferation inhibition in MITF-low A375 cells – cell-based, cherry-pick samples, set 2, counter-screen for MITF modulator project, dose response (AID 540335); format: functional; settings: Homo sapiens
[13] = Luminescence Cell-Based Dose Retest to Confirm Inhibitors of Cancer Stem Cells. [Related pubchem assays (depositor defined):AID2717, AID2721]; format: functional; settings: Homo sapiens
[14] = biological target: T2, Microphthalmia-associated transcription factor (Homo sapiens, UniProt O75030); assay: reducers of TRPM1 reporter luminescence, concentration series – cell-based, SK-MEL-5, cherry-picked, set 3, MITF inhibitor project, dose response (AID 493073); format: functional;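 further: SK-MEL-5 melanoma cells with luciferase driven by the MITF target TRPM1 promoter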
T2 sequence (O75030 whole entry): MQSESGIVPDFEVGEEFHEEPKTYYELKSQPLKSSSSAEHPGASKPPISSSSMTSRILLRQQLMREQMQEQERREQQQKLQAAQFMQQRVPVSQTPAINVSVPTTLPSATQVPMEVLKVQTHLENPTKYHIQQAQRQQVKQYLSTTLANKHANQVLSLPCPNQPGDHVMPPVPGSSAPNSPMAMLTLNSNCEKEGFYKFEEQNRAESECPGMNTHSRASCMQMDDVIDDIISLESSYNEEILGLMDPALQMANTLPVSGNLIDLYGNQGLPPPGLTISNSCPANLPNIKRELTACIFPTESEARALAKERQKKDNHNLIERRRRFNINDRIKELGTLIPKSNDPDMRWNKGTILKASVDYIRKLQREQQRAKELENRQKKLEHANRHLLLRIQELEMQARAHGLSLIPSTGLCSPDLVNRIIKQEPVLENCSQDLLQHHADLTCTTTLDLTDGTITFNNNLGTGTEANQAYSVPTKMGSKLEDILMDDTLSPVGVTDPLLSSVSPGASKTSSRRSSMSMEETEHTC

Cytochrome P450 2D6 = Cytochrome P450 2D6 (Homo sapiens, UniProt P10635);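 further: CYP2D6 member of a cytochrome P450 panel assay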
Sequence of Cytochrome P450 2D6 (P10635 whole entry): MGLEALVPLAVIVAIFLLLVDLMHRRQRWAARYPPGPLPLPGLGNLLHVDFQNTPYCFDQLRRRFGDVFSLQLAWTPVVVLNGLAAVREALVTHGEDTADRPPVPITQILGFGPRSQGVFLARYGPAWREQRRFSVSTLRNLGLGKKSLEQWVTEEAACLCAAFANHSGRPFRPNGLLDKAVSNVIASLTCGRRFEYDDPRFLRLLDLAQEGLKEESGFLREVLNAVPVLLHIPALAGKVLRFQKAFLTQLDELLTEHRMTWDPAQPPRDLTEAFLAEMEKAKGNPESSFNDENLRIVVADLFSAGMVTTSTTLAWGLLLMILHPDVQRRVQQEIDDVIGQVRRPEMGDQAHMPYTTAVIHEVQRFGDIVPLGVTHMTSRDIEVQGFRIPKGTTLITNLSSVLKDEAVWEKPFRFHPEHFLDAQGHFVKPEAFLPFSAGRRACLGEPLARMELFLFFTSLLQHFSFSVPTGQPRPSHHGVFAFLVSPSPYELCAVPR

SMILES: Cc1ccc(NC(=O)c2ccc([N+](=O)[O-])o2)cc1C(F)(F)F
- IC50 (HEK293 [1]): 60 µM (inactive)
- IC50 (Jurkat [2]): 0.45 µM (active)
- IC50 (HEK293 [3]): 68.5 µM (inactive)

SMILES: N#Cc1cc(Oc2cccc3cccnc23)c(-n2nnc3ccccc32)cc1C#N
- EC50 [4]: 22.6 µM (active)
- AC50 [5]: 2.77 µM (active)
- EC50 [6]: 2.25 µM (active)
- CC50 [7]: > 40 µM (active)
- EC50 [8]: > 260 µM (inactive)
- EC50 (HEK293 [9]): > 59.6 µM (inactive)
- EC50 (HEK293 [10]): > 59.6 µM (inactive)

SMILES: CCCCCCCCn1ccc(=N)cc1
- IC50 (Jurkat [11]): > 80 µM (inactive)
- AC50 (INS1): 0.585 µM (active)
- IC50 [12]: > 80 µM (inactive)

SMILES: Cc1ccc(C)c(NC(=O)/C(C#N)=C/c2cn(CC(=O)NCc3ccco3)c3ccccc23)c1
- AC50 (A-375): 33.9 µM (active)
- AC50 [13]: 57.8 µM (active)
- AC50 [14]: 6.56 µM (active)
- AC50 (INS1): 3.67 µM (active)

SMILES: O=C1OC(=O)[C@@H]2[C@@H]1[C@@H]1CC[C@H]2O1
- AC50 (Cytochrome P450 2D6): inconclusive
